From publication PMC12766724, “Synthesis, Anthelmintic Activity, and Mechanism of Action of 5‑Aryl‑1H‑indoles” (Journal of Agricultural and Food Chemistry, 2025)
Values belong to the molecule of their own block, whether it stands above or below them.

Columns and labels:
[1] = test system: age unsynchronized Ditylenchus destructor; assay: Motility on WMicrotracker ONE; type: in vivo
Summary of the method: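 Age-unsynchronized populations of Ditylenchus destructor were maintained following a previously described protocol. Their motility was measured on the WMicrotracker ONE platform using previously published methods. The instrument scores the activity of small animals by counting how often infrared light microbeams passing through the wells of a microtiter plate are interrupted. Activity was recorded before treatment and during exposure to compounds.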

[2] = test system: Heterodera schachtii second-stage juveniles (J2); assay: Motility on WMicrotracker ONE; type: in vivo
Summary of the method: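 Second-stage juveniles of H. schachtii, reared on in vitro mustard roots on modified KNOP medium, were exposed to compounds in microtiter wells. Motility was scored as activity counts, i.e. interruptions of infrared microbeams passing through each well.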

[3] = test system: human keratinocytes (HaCaT); assay: Resazurin assay, 3-day treatment; type: cell-based
H. schachtii = assay: DESI-MS detection of compound in nematodes; set-up: species or system Heterodera schachtii
Experimental: (§1) For in situ visualization of selected compounds, desorption electrospray ionization mass spectrometry imaging (DESI-MSI) was performed by using a Synapt G2-Si MS instrument coupled to a 2D-DESI source (Waters). The spray solvent (95% MeOH with 0.1% ammonia) was delivered at 2 μL/min and nebulized with […] ultrapure nitrogen on sample slides. The DESI source was optimized as follows: tip-to-surface distance: 1 mm; tip-to-inlet distance: 5 mm; incidence angle: 55°; collection angle: 10°; capillary voltage: 4 kV; cone voltage: […]; mass range: 100–600, with 16 000–17 000 full width at half-maximum (fwhm) mass resolution. Data were acquired in the negative mode using MassLynx software (v4.1, Waters, Milford, MA). Spectra, with a spatial resolution of 30 μm, were acquired every second. All acquired spectra were then recalibrated with the exact mass of the standard compounds and normalized based on root mean square (RMS) intensities. […] DESI-MS/MS was performed on the same sampling area with a 20 eV collision energy scanning of nematodes, and the acquired MS/MS spectra were summarized for the fragmentation ion assignment, and the correct molecular formulas were first calculated using MassLynx software (v4.1) and then identified by their masses acquired from the standard solution. […]

C. elegans = assay: DESI-MS detection of compound in nematodes; set-up: species or system Caenorhabditis elegans
Experimental: as §1

C. elegans N2 = assay: Scoring of developmental rates, L1 exposed 5 days; type: in vivo, Caenorhabditis elegans; set-up: key: 1 = dead/arrested at L1 … 5 = healthy, normal reproduction
Source text: Dead or mostly immobile worms, arrested at the L1 stage, received a score of 1. Populations with severely delayed development were scored as 2. More developmentally advanced, but still obviously delayed worms were given the score of 3. Adult worms that produce a noticeably lower number of progeny received a score of 4. Healthy worms that reproduce normally (i.e., hundreds of eggs and larvae are present) were scored as 5 (see Figure C for representative images). In a typical, correctly prepared experiment, vehicle-treated populations should receive a score of 5, while worms treated with ivermectin (positive control) should receive a score of 1. […]

[4] = test system: H. schachtii second-stage juveniles (J2); assay: Nematicidal assay with NaOH agitation; type: in vivo, Heterodera schachtii; settings: 50 µM; 48 h
Source text: To assess the nematicidal effect of compounds on H. schachtii second-stage juveniles (J2), approximately 50 J2 in sterile double-distilled water were transferred into each well of a flat-bottom 96-well plate and exposed to the test compounds or vehicle alone (DMSO 0.2%).

[5] = 10 µM group, initial (prior to the treatment)
[6] = 50 µM group, initial (prior to the treatment)
[7] = 100 µM group, initial (prior to the treatment)

SMILES: CCCOc1cccc(-c2ccc3[nH]ccc3c2)c1 [i-12]
average activity counts [1, 5]: 220
average activity counts ([1]; 10 µM, 48 h): 197
average activity counts ([1]; 10 µM, 72 h): 218
average activity counts [1, 6]: 201
average activity counts ([1]; 50 µM, 48 h): 186
average activity counts ([1]; 50 µM, 72 h): 202
average activity counts [1, 7]: 235
average activity counts ([1]; 100 µM, 48 h): 207
average activity counts ([1]; 100 µM, 72 h): 202
average activity counts [2, 5]: 192
average activity counts ([2]; 10 µM, 48 h): 200
average activity counts ([2]; 10 µM, 72 h): 158
average activity counts [2, 6]: 176
average activity counts ([2]; 50 µM, 48 h): 195
average activity counts ([2]; 50 µM, 72 h): 136
average activity counts [2, 7]: 195
average activity counts ([2]; 100 µM, 48 h): 166
average activity counts ([2]; 100 µM, 72 h): 177
Average viability (signal intensity relative to control) ([3]; 10 µM): 1.06 ± 0.14
Average viability (signal intensity relative to control) ([3]; 20 µM): 1.09 ± 0.13
Average viability (signal intensity relative to control) ([3]; 40 µM): 1.06 ± 0.09

DESI-MS signal of the compound in nematodes (H. schachtii): able to detect signals
DESI-MS signal of the compound in nematodes (C. elegans): able to detect signals
SMILES: CCCOc1ccc(-c2ccc3[nH]ccc3c2)cc1 [i-13]
average activity counts [1, 5]: 204
average activity counts ([1]; 10 µM, 48 h): 200
average activity counts ([1]; 10 µM, 72 h): 207
average activity counts [1, 6]: 221
average activity counts ([1]; 50 µM, 48 h): 211
average activity counts ([1]; 50 µM, 72 h): 219
average activity counts [1, 7]: 239
average activity counts ([1]; 100 µM, 48 h): 211
average activity counts ([1]; 100 µM, 72 h): 228
average activity counts [2, 5]: 166
average activity counts ([2]; 10 µM, 48 h): 159
average activity counts ([2]; 10 µM, 72 h): 141
average activity counts [2, 6]: 192
average activity counts ([2]; 50 µM, 48 h): 183
average activity counts ([2]; 50 µM, 72 h): 163
average activity counts [2, 7]: 192
average activity counts ([2]; 100 µM, 48 h): 144
average activity counts ([2]; 100 µM, 72 h): 150
Average viability (signal intensity relative to control) ([3]; 10 µM): 0.97 ± 0.01
Average viability (signal intensity relative to control) ([3]; 20 µM): 0.98 ± 0.02
Average viability (signal intensity relative to control) ([3]; 40 µM): 0.91 ± 0.04

SMILES: Clc1ccc(-c2ccc3[nH]ccc3c2)cc1 [i-19]
average activity counts [1, 5]: 226
average activity counts ([1]; 10 µM, 48 h): 227
average activity counts ([1]; 10 µM, 72 h): 232
average activity counts [1, 6]: 239
average activity counts ([1]; 50 µM, 48 h): 85
average activity counts ([1]; 50 µM, 72 h): 67
average activity counts [1, 7]: 233
average activity counts ([1]; 100 µM, 48 h): 113
average activity counts ([1]; 100 µM, 72 h): 88
decrease of mean activity counts ([1]; 100 µM, 72 h): 62%
mean score (1-5) (C. elegans N2; 1.336 µM): 5
mean score (1-5) (C. elegans N2; 1.782 µM): 4.222
mean score (1-5) (C. elegans N2; 2.376 µM): 4.889
mean score (1-5) (C. elegans N2; 3.168 µM): 4.889
mean score (1-5) (C. elegans N2; 4.224 µM): 4.667
mean score (1-5) (C. elegans N2; 5.631 µM): 4.444
mean score (1-5) (C. elegans N2; 7.509 µM): 4.667
mean score (1-5) (C. elegans N2; 10.011 µM): 4.444
mean score (1-5) (C. elegans N2; 13.348 µM): 4
mean score (1-5) (C. elegans N2; 17.798 µM): 2.556
mean score (1-5) (C. elegans N2; 23.731 µM): 1.333
mean score (1-5) (C. elegans N2; 31.641 µM): 1
mean score (1-5) (C. elegans N2; 42.188 µM): 1
mean score (1-5) (C. elegans N2; 56.25 µM): 1
mean score (1-5) (C. elegans N2; 75 µM): 1
mean score (1-5) (C. elegans N2; 100 µM): 1
average activity counts [2, 5]: 190
average activity counts ([2]; 10 µM, 48 h): 179
average activity counts ([2]; 10 µM, 72 h): 192
average activity counts [2, 6]: 183
average activity counts ([2]; 50 µM, 48 h): 90
average activity counts ([2]; 50 µM, 72 h): 18
average activity counts [2, 7]: 195
average activity counts ([2]; 100 µM, 48 h): 121
average activity counts ([2]; 100 µM, 72 h): 30
decrease in mean activity counts ([2]; 100 µM, 72 h): 85%
DESI-MS signal of the compound in nematodes (H. schachtii): able to detect signals
nematicidal effect after NaOH addition [4]: immobilize worms rather than directly kill them
Average viability (signal intensity relative to control) ([3]; 10 µM): 1.01 ± 0.02
Average viability (signal intensity relative to control) ([3]; 20 µM): 1.02 ± 0.05
Average viability (signal intensity relative to control) ([3]; 40 µM): 0.86 ± 0.1
decrease in viability ([3]; 40 µM): approximately 5%
DESI-MS signal of the compound in nematodes (C. elegans): able to detect signals

SMILES: Fc1ccc(-c2ccc3[nH]ccc3c2)cc1 [i-20]
average activity counts [1, 5]: 215
average activity counts ([1]; 10 µM, 48 h): 200
average activity counts ([1]; 10 µM, 72 h): 187
average activity counts [1, 6]: 223
average activity counts ([1]; 50 µM, 48 h): 84
average activity counts ([1]; 50 µM, 72 h): 64
average activity counts [1, 7]: 226
average activity counts ([1]; 100 µM, 48 h): 2
average activity counts ([1]; 100 µM, 72 h): 2
decrease of mean activity counts ([1]; 100 µM, 72 h): 99%
average activity counts [2, 5]: 165
average activity counts ([2]; 10 µM, 48 h): 169
average activity counts ([2]; 10 µM, 72 h): 176
average activity counts [2, 6]: 174
average activity counts ([2]; 50 µM, 48 h): 81
average activity counts ([2]; 50 µM, 72 h): 27
average activity counts [2, 7]: 180
average activity counts ([2]; 100 µM, 48 h): 4
average activity counts ([2]; 100 µM, 72 h): 5
decrease in mean activity counts ([2]; 100 µM, 72 h): 97%
nematicidal effect after NaOH addition [4]: immobilize worms rather than directly kill them
Average viability (signal intensity relative to control) ([3]; 10 µM): 0.97 ± 0.01
Average viability (signal intensity relative to control) ([3]; 20 µM): 0.99 ± 0.02
Average viability (signal intensity relative to control) ([3]; 40 µM): 0.94 ± 0.02

SMILES: FC(F)(F)Oc1ccc(-c2ccc3[nH]ccc3c2)cc1 [i-21]
average activity counts [1, 5]: 227
average activity counts ([1]; 10 µM, 48 h): 220
average activity counts ([1]; 10 µM, 72 h): 183
average activity counts [1, 6]: 223
average activity counts ([1]; 50 µM, 48 h): 172
average activity counts ([1]; 50 µM, 72 h): 139
average activity counts [1, 7]: 221
average activity counts ([1]; 100 µM, 48 h): 158
average activity counts ([1]; 100 µM, 72 h): 94
decrease of mean activity counts ([1]; 100 µM, 72 h): 57%
average activity counts [2, 5]: 175
average activity counts ([2]; 10 µM, 48 h): 170
average activity counts ([2]; 10 µM, 72 h): 146
average activity counts [2, 6]: 177
average activity counts ([2]; 50 µM, 48 h): 142
average activity counts ([2]; 50 µM, 72 h): 102
average activity counts [2, 7]: 187
average activity counts ([2]; 100 µM, 48 h): 150
average activity counts ([2]; 100 µM, 72 h): 104
Average viability (signal intensity relative to control) ([3]; 10 µM): 0.96 ± 0.02
Average viability (signal intensity relative to control) ([3]; 20 µM): 0.96 ± 0.04
Average viability (signal intensity relative to control) ([3]; 40 µM): 0.74 ± 0.11
